{"source": "patent US10213428B2", "about": "“(4-((3R,4R)-3-methoxytetrahydro-pyran-4-ylamino)piperidin-1-yl)(5-methyl-6-(((2R,6S)-6-(p-tolyl)tetrahydro-2H-pyran-2-yl)methylamino)pyrimidin-4-yl)methanone citrate” (Centrexion Therapeutics Corporation, priority 2015, dated 2019)", "key": {"[1]": {"test": "X-ray powder diffraction: crystallinity and polymorphism", "format": "physicochemical", "conditions": "for indications for polymorphism: several crystallization experiments", "description": "X-ray powder diagrams were generated using a STOE-STADI P-diffractometer in transmission mode fitted with a MYTHEN-detector and a Cu-anode as X-ray source with monochromatic CuKα1 radiation (λ=1.54056 Å, 40 kV, 40 mA)."}, "[2]": {"test": "Dynamic vapour sorption (sorption isotherms, water uptake)", "format": "physicochemical", "conditions": "for hygroscopic behavior: uptake of water: 25° C., citrate", "description": "Sorption isotherms were generated using an IGAsorp water sorption monitor from Hiden Isochema. […] For BR salt form only: Sorption isotherms were registered on a DVS-1 water sorption monitor from Surface Measurement Systems."}, "[3]": {"test": "ThermoGravimetry (loss on drying)", "format": "physicochemical", "conditions": "TG", "description": "Thermal gravimetry data were collected with a TG instrument from the Q-series of TA Instruments. This method measures weight changes in a material as a function of temperature under a controlled atmosphere."}, "[4]": {"test": "Oral pharmacokinetics in rat", "format": "in vivo, Wistar(Han) rats", "conditions": "oral dose 20 μmol/kg of citrate salt 1, mean values", "description": "The pharmacokinetics of the test compound following single intravenous (IV) or oral (PO) doses were examined in • female BALB/c mice (average weight: 25 g) • male Wistar(Han) rats (average weight: 260 g) • male and female Göttingen Minipigs (average weight: 24 kg) • male beagle dogs (average weight: 15 kg) All non-rodent species were fasted overnight prior to dosing, while mice and rats had food and water available ad libitum. The p.o. dose of the compound was usually administered as suspension in 0.5% Natrosol or as a 0.5% Natrosol/0.015% Tween 80 suspension. For i.v. dosing purposes, the doses were applied as a solution in 0.9% NaCL, or as a solution containing 9.1% HP-beta Cyclodextrin in water.\nBlood was collected by venous sampling and soaking of the blood in EDTA coated tubes. Samples were collected for up to 48 h after administration of the test compound. Plasma was then separated by centrifugation (5 min by approximately 9000 g at 4° C.). For determination of the test compound, plasma was transferred into PCR plates. All samples were stored at approximately −20° C. until bioanalytics. The test compound concentrations in plasma were determined by HPLC MS/MS. The lower limit of quantification was between 0.5 nmol/L and 1 nmol/L."}, "[5]": {"test": "Solubility, automated shake flask method with UV quantitation", "format": "physicochemical", "conditions": "for solubility at 2 h / solubility at 4 h / solubility at 6 h: thermodynamic from solid, room temperature", "procedure": "Solubility was determined using an automated shake flask method (at room temperature) and quantitation of the dissolved drug substance was determined by UV-spectroscopy within this automated setup."}, "[6]": {"conditions": "listed as Citrate salt, citrate"}, "[7]": {"conditions": "male, Wistar(Han), plasma, 20 umol/kg"}}, "note": "Entries after “also recorded” stand apart in the source; their conditions may differ.", "data": [{"smiles": "CO[C@H]1COCC[C@H]1NC1CCN(C(=O)c2ncnc(NC[C@H]3CCC[C@@H](c4ccc(C)cc4)O3)c2C)CC1.O=C(O)CC(O)(CC(=O)O)C(=O)O", "note": "[citrate salt 1, (4-((3R,4R)-3-methoxytetrahydro-pyran-4-ylamino)piperidin-1-yl)(5-methyl-6-(((2R,6S)-6-(p-tolyl)tetrahydro-2H-pyran-2-yl)methylamino)pyrimidin-4-yl)methanone citrate]", "values": [{"measurement": "crystallinity", "setting": "[1]; listed as Citrate salt 1, citrate", "result": "highly crystalline"}, {"measurement": "crystallinity", "setting": "[1]; [6]", "result": "high"}, {"measurement": "indications for polymorphism", "setting": "[1]; [6]", "result": "no"}, {"measurement": "indications for polymorphism", "setting": "[1]; listed as citrate, citrate", "result": "Only one crystalline form; also recorded: only one polymorphic form"}, {"measurement": "physical state after sorption experiment / at higher relative humidity", "setting": "[2]; higher relative humidity, other salts starting at 60-70% relative humidity", "result": "still remains as solid material"}, {"measurement": "hygroscopic behavior: uptake of water", "setting": "[2]; up to 80% r.h. (humidity range 10-80%)", "result": 2.6, "unit": "%"}, {"measurement": "hygroscopic behavior: uptake of water", "setting": "[2]; up to 80% r.h. (humidity range 10-80%), listed as Citrate salt", "result": 2.6, "unit": "%"}, {"measurement": "hygroscopic behavior: uptake of water", "setting": "[2]; up to 80% r.h. (humidity range 10-80%), listed as citrate", "result": 2.6, "unit": "%"}, {"measurement": "hygroscopic behavior: uptake of water", "setting": "[2]; up to 90% r.h.", "result": 3.4, "unit": "%"}, {"measurement": "hygroscopic behavior: uptake of water", "setting": "[2]; up to 90% r.h., listed as Citrate salt", "result": 3.4, "unit": "%"}, {"measurement": "loss on drying", "setting": "[3]", "result": 1.6, "unit": "%"}, {"measurement": "AUC(0-inf)", "setting": "[4]; [7]", "result": 1710, "unit": "nM·h"}, {"measurement": "Cmax", "setting": "[4]; [7]", "result": 0.454, "unit": "µM"}, {"measurement": "Tmax", "setting": "[4]; [7]", "result": 1.08, "unit": "h"}, {"measurement": "MRTtot", "setting": "[4]", "result": 3.3, "unit": "h"}, {"measurement": "solubility at 2 h", "setting": "[5]; Sörensen buffer, aqueous buffer, Sörensen pH 10, 2 h", "result": "> 1", "unit": "mg/mL"}, {"measurement": "solubility at 4 h", "setting": "[5]; Sörensen buffer, aqueous buffer, Sörensen pH 10, 4 h", "result": "> 1", "unit": "mg/mL"}, {"measurement": "solubility at 6 h", "setting": "[5]; Sörensen buffer, aqueous buffer, Sörensen pH 10, 6 h", "result": "> 1", "unit": "mg/mL"}, {"measurement": "Solubility in aqueous media (in words)", "setting": "[5]; acidic, neutral and basic aqueous media", "result": "highly soluble"}, {"measurement": "solubility at 2 h", "setting": "[5]; aqueous buffer, 0.1N NaOH, 2 h", "result": "> 1", "unit": "mg/mL"}, {"measurement": "solubility at 4 h", "setting": "[5]; aqueous buffer, 0.1N NaOH, 4 h", "result": "> 1", "unit": "mg/mL"}, {"measurement": "solubility at 6 h", "setting": "[5]; aqueous buffer, 0.1N NaOH, 6 h", "result": "> 1", "unit": "mg/mL"}, {"measurement": "solubility at 2 h", "setting": "[5]; aqueous buffer, KH2PO4-buffer pH 7.4, 2 h", "result": "> 1", "unit": "mg/mL"}, {"measurement": "solubility at 4 h", "setting": "[5]; aqueous buffer, KH2PO4-buffer pH 7.4, 4 h", "result": "> 1", "unit": "mg/mL"}, {"measurement": "solubility at 6 h", "setting": "[5]; aqueous buffer, KH2PO4-buffer pH 7.4, 6 h", "result": "> 1", "unit": "mg/mL"}, {"measurement": "solubility at 2 h", "setting": "[5]; aqueous buffer, McIlvaine buffer pH 2.2, 2 h", "result": "> 1", "unit": "mg/mL"}, {"measurement": "solubility at 4 h", "setting": "[5]; aqueous buffer, McIlvaine buffer pH 2.2, 4 h", "result": "> 1", "unit": "mg/mL"}, {"measurement": "solubility at 6 h", "setting": "[5]; aqueous buffer, McIlvaine buffer pH 2.2, 6 h", "result": "> 1", "unit": "mg/mL"}, {"measurement": "solubility at 2 h", "setting": "[5]; aqueous buffer, McIlvaine buffer pH 3.0, 2 h", "result": "> 1", "unit": "mg/mL"}, {"measurement": "solubility at 4 h", "setting": "[5]; aqueous buffer, McIlvaine buffer pH 3.0, 4 h", "result": "> 1", "unit": "mg/mL"}, {"measurement": "solubility at 6 h", "setting": "[5]; aqueous buffer, McIlvaine buffer pH 3.0, 6 h", "result": "> 1", "unit": "mg/mL"}, {"measurement": "solubility at 2 h", "setting": "[5]; aqueous buffer, McIlvaine buffer pH 4.0, 2 h", "result": "> 1", "unit": "mg/mL"}, {"measurement": "solubility at 4 h", "setting": "[5]; aqueous buffer, McIlvaine buffer pH 4.0, 4 h", "result": "> 1", "unit": "mg/mL"}, {"measurement": "solubility at 6 h", "setting": "[5]; aqueous buffer, McIlvaine buffer pH 4.0, 6 h", "result": "> 1", "unit": "mg/mL"}, {"measurement": "solubility at 4 h", "setting": "[5]; aqueous buffer, McIlvaine buffer pH 4.5, 4 h", "result": "> 1", "unit": "mg/mL"}, {"measurement": "solubility at 6 h", "setting": "[5]; aqueous buffer, McIlvaine buffer pH 4.5, 6 h", "result": "> 1", "unit": "mg/mL"}, {"measurement": "solubility at 2 h", "setting": "[5]; aqueous buffer, McIlvaine buffer pH 5.0, 2 h", "result": "> 1", "unit": "mg/mL"}, {"measurement": "solubility at 4 h", "setting": "[5]; aqueous buffer, McIlvaine buffer pH 5.0, 4 h", "result": "> 1", "unit": "mg/mL"}, {"measurement": "solubility at 6 h", "setting": "[5]; aqueous buffer, McIlvaine buffer pH 5.0, 6 h", "result": "> 1", "unit": "mg/mL"}, {"measurement": "solubility at 2 h", "setting": "[5]; aqueous buffer, McIlvaine buffer pH 6.0, 2 h", "result": "> 1", "unit": "mg/mL"}, {"measurement": "solubility at 4 h", "setting": "[5]; aqueous buffer, McIlvaine buffer pH 6.0, 4 h", "result": "> 1", "unit": "mg/mL"}, {"measurement": "solubility at 6 h", "setting": "[5]; aqueous buffer, McIlvaine buffer pH 6.0, 6 h", "result": "> 1", "unit": "mg/mL"}, {"measurement": "solubility at 2 h", "setting": "[5]; aqueous buffer, McIlvaine buffer pH 6.8, 2 h", "result": "> 1", "unit": "mg/mL"}, {"measurement": "solubility at 4 h", "setting": "[5]; aqueous buffer, McIlvaine buffer pH 6.8, 4 h", "result": "> 1", "unit": "mg/mL"}, {"measurement": "solubility at 6 h", "setting": "[5]; aqueous buffer, McIlvaine buffer pH 6.8, 6 h", "result": "> 1", "unit": "mg/mL"}, {"measurement": "solubility at 2 h", "setting": "[5]; aqueous buffer, McIlvaine buffer pH 7.4, 2 h", "result": "> 1", "unit": "mg/mL"}, {"measurement": "solubility at 4 h", "setting": "[5]; aqueous buffer, McIlvaine buffer pH 7.4, 4 h", "result": "> 1", "unit": "mg/mL"}, {"measurement": "solubility at 6 h", "setting": "[5]; aqueous buffer, McIlvaine buffer pH 7.4, 6 h", "result": "> 1", "unit": "mg/mL"}, {"measurement": "solubility at 2 h", "setting": "[5]; organic solvent or mixture, EtOH, 2 h", "result": 9.2, "unit": "mg/mL"}, {"measurement": "solubility at 4 h", "setting": "[5]; organic solvent or mixture, EtOH, 4 h", "result": 9.8, "unit": "mg/mL"}, {"measurement": "solubility at 6 h", "setting": "[5]; organic solvent or mixture, EtOH, 6 h", "result": 10, "unit": "mg/mL"}, {"measurement": "solubility at 2 h", "setting": "[5]; simulated gastric fluid, 0.01N HCl, 2 h", "result": "> 1", "unit": "mg/mL"}, {"measurement": "solubility at 4 h", "setting": "[5]; simulated gastric fluid, 0.01N HCl, 4 h", "result": "> 1", "unit": "mg/mL"}, {"measurement": "solubility at 6 h", "setting": "[5]; simulated gastric fluid, 0.01N HCl, 6 h", "result": "> 1", "unit": "mg/mL"}, {"measurement": "solubility at 2 h", "setting": "[5]; simulated gastric fluid, 0.1N HCl, 2 h", "result": "> 1", "unit": "mg/mL"}, {"measurement": "solubility at 4 h", "setting": "[5]; simulated gastric fluid, 0.1N HCl, 4 h", "result": "> 1", "unit": "mg/mL"}, {"measurement": "solubility at 6 h", "setting": "[5]; simulated gastric fluid, 0.1N HCl, 6 h", "result": "> 1", "unit": "mg/mL"}, {"measurement": "solubility at 2 h", "setting": "[5]; Water, 2 h", "result": "> 1", "unit": "mg/mL"}, {"measurement": "solubility at 4 h", "setting": "[5]; Water, 4 h", "result": "> 1", "unit": "mg/mL"}, {"measurement": "solubility at 6 h", "setting": "[5]; Water, 6 h", "result": "> 1", "unit": "mg/mL"}]}]}
